Assay results from article PMC10382259, “Efficacy and Safety of Elamipretide in Individuals With Primary Mitochondrial Myopathy” (Neurology, 2023).
“Also recorded” adds a separate entry of the source.

Tests used:
[1] = system: participants with primary mitochondrial myopathy (PMM); assay: 6-minute walk test (6MWT), MMPOWER-3 phase 3 trial; type: in vivo, human
Experimental: (§1) MMPOWER-3 was a 24-week , randomized, double-blind, parallel-group, placebo-controlled clinical trial for adults with PMM conducted at 27 clinical research centers in 7 countries (Canada, Denmark, England, Germany, Hungary, Italy, and the United States).
(§2) After screening (7–28 days), eligible participants were randomized in a 1:1 ratio to receive either 24-weeks of once-daily SC dosing of 40 mg of elamipretide or placebo. Study drug or placebo was self-administered subcutaneously by trained participants or their caregivers, at rotating sites around 4 quadrants of the abdomen or the thighs. Treatment began at the baseline visit with assessments at weeks 4, 12, and 24.
(§3) Coprimary endpoints evaluated the effect of elamipretide for 24 weeks including the distance walked (in meters) on the 6MWT and the total fatigue score on the Primary Mitochondrial Myopathy Symptom Assessment (PMMSA), previously described in detail.[31] The full PMMSA assesses the severity of 10 of the most common symptoms of PMM using the following 4-point scale (not at all[1] to severe; described later). PMMSA total fatigue score (TFS) focuses on myopathic symptoms most commonly associated with PMM (severity of tiredness and muscle weakness at rest and during activities, as described by participants).
(§4) Efficacy was assessed in the intention-to-treat (ITT) population, defined as all participants who received at least 1 dose of investigational medication, and the per-protocol (PP) population, which included all ITT participants without defined protocol violations/deviations identified per blinded data review before database lock. These protocol violations/deviations included not meeting inclusion/exclusion criteria or having a selected major protocol deviation deemed to potentially affect efficacy findings; not completing the study; not receiving investigational treatment within 2 days before the week 24 visit; having <80% compliance to investigational product; and not completing the study. Safety was assessed in the safety population, defined as all participants who received at least 1 dose of investigational medication.
(§5) Primary and secondary efficacy outcomes were assessed as the change from baseline to each on-treatment time point with the primary time point being end of treatment (week 24). Analyses of continuous endpoints were conducted using a mixed-model repeated measures approach, with fixed effects for treatment, visit, the treatment-by-visit interaction, and participant as a random effect. The baseline value and a baseline-by-visit interaction for the endpoint were included as covariates. A family-wise alpha level of 0.05 was maintained for the primary endpoints, using Hochberg procedure at the primary time point of 24 weeks. […] If not, the endpoint with the smaller p value of the 2 was considered statistically significant if the p value was ≤0.025 (2-sided ).
(§6) Given the extensive genetic heterogeneity of the study population, an exploratory analysis of genetic subgroups by genomic alteration (mtDNA and nDNA) was performed using the same methods as described for the primary efficacy endpoints earlier (ITT population using similar mixed-model repeated measure [MMRM] models).
Because of a potential data entry error, which was later identified in post hoc data analysis, 3 participants were misclassified in the clinical study report as having a pathogenic mtDNA variant. […] Accordingly, these participants were moved from the mtDNA group into the nDNA cohort for the included genetic alteration analyses. 6MWT for 1 participant at week 24 was deemed unusable because the participant inadvertently received walking assistance and was therefore not included in the 6MWT analyses. Study protocol and statistical analysis plan were published on ClinicalTrials.gov updated on January 24th 2022 (NCT03323749).[32]

[2] = cited from earlier work
Source text: Elamipretide is an investigational mitochondrial-targeting agent in development for treating patients with a variety of mitochondrial diseases.[10][-][13] Elamipretide is a water-soluble, aromatic, cationic, mitochondria-targeting tetrapeptide that readily penetrates and transiently localizes to the inner mitochondrial membrane where it associates with cardiolipin to improve membrane stability and restore supercomplex formation, thereby enhancing adenosine triphosphate synthesis in several organs including the heart, kidney, neurons, and skeletal muscle, and reduce reactive oxygen species (ROS ...

[3] = Population pharmacokinetic and exposure-response analysis (NONMEM), MMPOWER-3; type: in vivo, human
Experimental: The PK population included 106 participants randomized and treated with elamipretide, with at least 1 PK sample taken during their participation. PK modeling for elamipretide and its metabolites, M1 and M2, were performed using NONMEM computer software. Covariates, such as age, genotype, weight, height, lean body mass, body mass index, liver function tests, serum creatinine, and renal function (as described by estimated glomerular filtration rate [eGFR]) were analyzed. The exposure-response analysis examined response based on the 6MWT as a function of steady-state exposure to elamipretide and its metabolites.

[4] = system: participants with primary mitochondrial myopathy (PMM); assay: MMPOWER-3 overall outcome on primary and secondary efficacy endpoints; type: in vivo, human; settings: 40 mg/d SC, 24 weeks, vs placebo
Source text: as §3, with “participants). […]” for “participants).”
Other secondary endpoints included the patient global impression (PGI) and clinician global impression (CGI) of PMM symptoms. PGI and CGI assess patient and clinician overall assessment of the severity of patients' symptoms related to PMM on a 5-point scaled question scored 0 to 4 (0 = none, 1 = mild, 2 = moderate, 3 = severe, and 4 = very Severe) and changes to their symptoms on a 7-point scale scored −3 to 3 (−3 = very much worse, −2 = moderately worse, −1 = a little worse, 0 = no change, 1 = a little better, 2 = moderately better, and 3 = very much better).
Primary and secondary efficacy outcomes were assessed as the change from baseline to each on-treatment time point with the primary time point being end of treatment (week 24). […]

[5] = system: participants with primary mitochondrial myopathy (PMM); assay: Primary Mitochondrial Myopathy Symptom Assessment (PMMSA) total fatigue score, MMPOWER-3; type: in vivo, human
Experimental: as §1, §2, §3
The PMMSA was performed during screening, baseline, and daily throughout the 24-week study period. Other efficacy endpoints were performed at screening, baseline, and at weeks 4, 12, and 24 of randomized treatment.
as §4, §5, §6

[6] = system: participants with primary mitochondrial myopathy (PMM); assay: Safety and tolerability (adverse events), MMPOWER-3; type: in vivo, human
Experimental: Safety and tolerability of elamipretide at a dose of 40 mg/d SC were assessed through recording of adverse events (AEs), ascertained through self-report, vital signs, physical examination, ECGs, and clinical laboratory evaluations. Adverse events were assessed for severity and relationship to study medication throughout the 24-week study. Safety measures were assessed during screening, baseline and weeks 4, 12, and 24.
as §4

[7] = 40 mg/d SC, 24 weeks, listed as Elamipretide
[8] = AEs reported by ≥ 5% of participants in either group, n = 109, 40 mg/d SC, 24 weeks
[9] = safety population n = 109, 40 mg/d SC, 24 weeks

For elamipretide, the “Difference between elamipretide and placebo in LS mean change from baseline in 6MWT distance at week 24” value ([1]; ITT population, 40 mg/d SC, 24 weeks, 95% CI −18.7 to 12.3, p = 0.69) was −3.2 meters, the “Least squares mean (SE) of change from baseline in distance walked on 6MWT at week 24” value ([1]; ITT population, elamipretide 40 mg/d SC once daily, 24 weeks, MMRM, SEM) was 14.1 (±5.7) meters and the “Difference between elamipretide and placebo in change from baseline in 6MWT distance at week 24, per-protocol analysis” value ([1]; PP population, 40 mg/d SC, 24 weeks, 95% CI −16.9 to 12.5, p = 0.77) was −2.2 meters. The “LS mean (SE) of change from baseline in 6MWT distance at week 24, mtDNA alteration subgroup” value ([1]; participants with mtDNA alteration (ITT), elamipretide n = 74, 40 mg/d SC, 24 weeks, SEM) was 14.0 (±6.1) meters, the “Between-group difference in change from baseline in 6MWT distance at week 24, mtDNA alteration subgroup” value ([1]; participants with mtDNA alteration, favoring placebo, 95% CI −28.1 to 6.1, p = 0.21) was −11.0 meters and the “LS mean (SE) change from baseline in 6MWT distance at week 24, nDNA alteration subgroup” value ([1]; participants with nDNA alteration (post hoc analysis), elamipretide n = 29, 40 mg/d SC, 24 weeks, SEM) was 25.5 (±8.0) meters. The “Between-group difference in change from baseline in 6MWT distance at week 24, nDNA alteration subgroup” value ([1]; participants with nDNA alteration (post hoc), favoring elamipretide, 95% CI 3.1–47.3, p = 0.03) was 25.2 meters, the “Solubility in water (description)” value [2] was “water-soluble” and the “Covariate influence on systemic or absorption PK parameters (population PK model)” value ([3]; PK population 106 participants, NONMEM, systemic parameters scaled allometrically) was “No covariates influenced the systemic or absorption parameters”. For the same substance, the “Exposure-response: 6MWT change and fractional change at week 24 vs day 1 as a function of elamipretide steady state area under the curve” value ([3]; participants with an nDNA alteration, p = 0.0262 and p = 0.0345, respectively) was “increase; also recorded: statistically significant correlation”, the “Overall outcome on efficacy endpoints (6MWT, PMMSA TFS, secondary endpoints) versus placebo” value [4] was “did not improve outcomes in the 6MWT and PMMSA TFS; also recorded: did not meet either primary or secondary endpoints; also recorded: did not demonstrate statistically significant changes on the primary endpoints” and the “Difference between elamipretide and placebo in LS mean change from baseline to week 24 on PMMSA total fatigue score” value ([5]; ITT population, 40 mg/d SC, 24 weeks, 95% CI −0.69 to 0.54, p = 0.81) was −0.07. The “LS mean (SE) of change from baseline to week 24 on the PMMSA total fatigue score” value ([5]; ITT population, 40 mg/d SC, 24 weeks, MMRM, SEM) was −1.13 (±0.22), the “Difference between elamipretide and placebo in change from baseline to week 24 on PMMSA total fatigue score, per-protocol analysis” value ([5]; PP population, 40 mg/d SC, 24 weeks, 95% CI −0.54 to 0.72, p = 0.78) was 0.09 and the “LS mean (SE) of change from baseline at week 24 on PMMSA TFS, mtDNA alteration subgroup” value ([5]; participants with mtDNA alteration, 40 mg/d SC, 24 weeks, SEM) was −1.3 (±0.2424). For the same substance, the “Between-group difference in change from baseline at week 24 on PMMSA TFS, mtDNA alteration subgroup” value ([5]; participants with mtDNA alteration, 95% CI −0.9 to 0.5, p = 0.55) was −0.21, the “LS mean (SE) of change from baseline at week 24 on PMMSA TFS, nDNA alteration subgroup” value ([5]; participants with nDNA alteration (post hoc analysis), 40 mg/d SC, 24 weeks, SEM) was −0.45 (±0.25) and the “Between-group difference in change from baseline at week 24 on PMMSA TFS, nDNA alteration subgroup” value ([5]; participants with nDNA alteration (post hoc), p = 0.93) was 0.03. For the same substance, the “AE with an outcome of death or hospitalization” value ([6]; 40 mg/d SC, 24 weeks) was “No participants”, the “Severity (intensity) of most adverse events” value ([6]; 40 mg/d SC, 24 weeks) was “mild or moderate” and the “Tolerability of subcutaneous elamipretide” value ([6]; 40 mg/d SC, 24 weeks) was “generally well tolerated”. The “Severity (intensity) of most adverse events” value [6, 7] was “mild to moderate”, the “Tolerability of subcutaneous elamipretide” value [6, 7] was “well-tolerated” and the Diarrhea [6, 8] was 3 (2.8) n (%). The Dizziness [6, 8] was 6 (5.5) n (%), the Eosinophil count increased [6, 8] was 7 (6.4) n (%) and the Fall [6, 8] was 6 (5.5) n (%). The Headache [6, 8] was 8 (7.3) n (%), the Injection site bruising [6, 8] was 9 (8.3) n (%) and the Injection site erythema [6, 8] was 94 (86.2) n (%). For the same substance, the Injection site hematoma [6, 8] was 0 n (%), the Injection site hemorrhage [6, 8] was 7 (6.4) n (%) and the Injection site induration [6, 8] was 31 (28.4) n (%). The Injection site mass [6, 8] was 9 (8.3) n (%), the Injection site nodule [6, 8] was 11 (10.1) n (%) and the Injection site pain [6, 8] was 43 (39.4) n (%). The Injection site pruritus [6, 8] was 82 (75.2) n (%), the Injection site swelling [6, 8] was 42 (38.5) n (%) and the Injection site urticaria [6, 8] was 14 (12.8) n (%). The Nasopharyngitis [6, 8] was 8 (7.3) n (%), the Nausea [6, 8] was 5 (4.6) n (%) and the “Upper respiratory tract infection” value [6, 8] was 7 (6.4) n (%). For the same substance, the “AEs reported as treatment-related AEs” value ([6]; elamipretide group, 40 mg/d SC, 24 weeks) was 97.2%, the “Percentage of participants with serious adverse events (SAEs)” value ([6]; n = 5/109, not deemed to be treatment related) was 4.6% and the “Incidence of AEs leading to discontinuation” value ([6]; n = 8/109) was 7.3%. The “Percentage of participants reporting AEs during the treatment period” value ([6]; n = 107/109, 40 mg/d SC, 24 weeks) was 98.2%, the “Any AE” value [6, 9] was 107 (98.2) n (%) and the “Any AE leading to treatment discontinuation” value [6, 9] was 8 (7.3) n (%). For the same substance, the “Any AE leading to treatment interruption” value [6, 9] was 13 (11.9) n (%), the “Any SAE” value [6, 9] was 5 (4.6) n (%) and the “Any treatment-related AE” value [6, 9] was 106 (97.2) n (%). For the same substance, the “Any treatment-related SAE” value [6, 9] was 0 n (%) and the Death [6, 9] was 0 n (%).
